Assay results: PubChem BioAssay AID1919003 (Molecular Pharmacology Branch, DTP, NCI, 2023)
Several values for one entry are separate records, joined by “and”; a condition that tells them apart may be missing. Equal values may be shown once.

System: 786-0 complex spheroids with HUVEC/MSC, growth % test/control
Test: Anticancer human tumor 786-0 cell line growth inhibition [AhR];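 further: compound exposure lasted seven days before the read-out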
Details: for viability, T/C: stronger effect = lower value
Text: Multicellular complex tumor spheroid response to aryl hydrocarbon receptor antagonists in combination with a variety of drugs and investigational agents in selected tumor cell lines
The current study was undertaken to assess response to aryl hydrocarbon receptor antagonists in combination with standard-of-care drugs and investigational agents in solid tumor complex spheroid models. Complex spheroids include a stromal component modeled by human endothelial cells (HUVEC) and fibroblasts modeled by human mesenchymal stem cells (MSCs). The concentration ranges selected for each drug and investigational agent were based upon clinically achievable concentrations if the clinical Cmax of the agent was known.
Compounds. The drugs and investigational agents: BAY 2416964 (NSC825713), GNF351 (NSC835774), CH-223191 (NSC835775), CPI-455 (NSC825282), aza-TdCyd (NSC777586), decitabine (NSC127716), belinostat (NSC758774), entinostat (NSC756642), pevonedistat (NSC761192), tazemetostat (NSC777109), talazoparib (NSC765396), olaparib (NSC753686), selinexor (NSC780203), nedisertib (M3814, NSC802822), bortezomib (NSC756655), venetoclax (NSC766270), doxorubicin (NSC123127), elimusertib (BAY189344, NSC800525), ceralasertib (AZD6738, NSC777638), TAK-243 (NSC785004), alisertib (NSC759677), etoposide (NSC141540), topotecan (NSC609699), eribulin (NSC707389), gemcitabine (NSC613327), carboplatin (NSC241240), cisplatin (NSC119875), and SN-38 (NSC673596) were obtained from the National Cancer Institute (NCI) Developmental Therapeutics Program Chemical Repository (32). The FDA-approved anticancer drug set is available from the Developmental Therapeutics Program at https://dtp.cancer.gov/organization/dscb/obtaining/available plates.htm. […] The stock solutions were prepared in dimethyl sulfoxide (DMSO, Sigma-Aldrich, St. Louis, MO, cat. D2650), except for the platinum compounds which were prepared in saline (Quality Biological, Gaithersburg, MD, cat. 114-055-101), at 800-fold the tested concentration and stored at -70 degrees C prior to their use. All drugs and investigational agents were tested over a range starting from a high concentration at or near the clinical Cmax and decreasing in half-log increments. If the clinical Cmax for an agent had not been determined, the highest concentration tested was 10 microM (Table 1).
Cell Culture. All cells were maintained in an incubator at 37 degrees C and 5% CO2 with 95% humidity. The PDC lines were cultured according to standard operating procedures established by the NCI PDMR (https://pdmr.cancer.gov). Briefly, all PDCs were thawed and cultured in Matrigel-coated flasks prepared with a working solution of 1X Ham's F-12 nutrient mix, without supplementation (Invitrogen, Waltham, MA, cat. 11765054), 100 U/mL penicillin-streptomycin (Invitrogen, cat. 15140122), and 2.5% Matrigel (Corning Inc., Corning, NY, cat. 354248) for the first three passages. All PDCs were cultured in complete DMEM/F-12 media containing advanced DMEM/F-12 (Invitrogen, cat. 12634028), 4.9% defined fetal bovine serum, heat inactivated (HyClone Laboratories Inc., Logan, UT, cat. SH30070.03HI), 389 ng/mL hydrocortisone (Sigma-Aldrich, cat. H4001), 9.7 ng/mL human EGF recombinant protein (Invitrogen, cat. PHG0313), 23.4 microg/mL adenine (Sigma-Aldrich, cat. A2786), 97.3 U/mL penicillin-streptomycin (Invitrogen, cat. 15140122), 1.9 mM L-glutamine (Invitrogen, cat. 25030081), and 9.7 microM Y-27632 dihydrochloride (Tocris Bioscience, Bristol, United Kingdom, cat. 1254). The PDCs were cultured in complete DMEM/F12 media without 10 microM Y-27632 dihydrochloride for at least two passages prior to the screen. The established cell lines NCI-H1341 and […] were cultured in DMEM/F-12, HEPES (Invitrogen, cat. 11330032), 5% defined fetal bovine serum (HyClone Laboratories Inc., cat. SH30070.03), ITS premix universal culture supplement [insulin (5 microg/mL), transferrin (5 microg/mL), and selenious acid (5 ng/mL)] […]

| Structure (SMILES) | IC50 (curve of compound) | viability, T/C (compound 0.0316 µM) | viability, T/C (compound 0.1 µM) | viability, T/C (compound 0.316 µM) | viability, T/C (compound 1 µM) | viability, T/C (compound 3.16 µM) | viability, T/C (compound 10 µM) | also measured |
| --- | --- | --- | --- | --- | --- | --- | --- | --- |
| CC(C)CC(NC(=O)C(Cc1ccccc1)NC(=O)c1cnccn1)B(O)O (centres undefined) | 12.3 nM and 18.4 nM and 7.53 nM | – | – | – | – | – | – | viability, T/C (compound 0.000949 µM): 100% and 102% and 98.1%; viability, T/C (compound 0.003 µM): 105% and 104% and 116%; viability, T/C (compound 0.00949 µM): 63.4% and 99.9% and 35.7%; viability, T/C (compound 0.03 µM): 3.86% and 13.5% and 0.66%; viability, T/C (compound 0.0949 µM): 0.45% and 1.34% and 0.4%; viability, T/C (compound 0.3 µM): 1.25% and 0.84% and 0.27% |
| CC(C)c1c(-c2ccccc2)nc2c(C#N)c[nH]n2c1=O | > 10000 nM | 101% and 108% and 93.8% | 106% and 99.9% and 109% | 101% and 103% and 108% | 105% and 101% and 100% | 97.5% and 110% and 105% | 99% and 98% and 97.1% | – |
| CC(CO)NC(=O)c1cc(-c2ccc(Cl)cc2)nn(-c2cnn(C)c2)c1=O (centres undefined) | – | – | 100% [middle of 20 runs] | – | – | – | – | IC50 (compound alone, run of 08/08/2022): > 10000 nM |
| CC1(C)CCC(CN2CCN(c3ccc(C(=O)NS(=O)(=O)c4ccc(NCC5CCOCC5)c([N+](=O)[O-])c4)c(Oc4cnc5[nH]ccc5c4)c3)CC2)=C(c2ccc(Cl)cc2)C1 | > 10000 nM | 99.3% and 109% and 105% | 97.5% and 98.3% and 98% | 102% and 108% and 99.2% | 107% and 108% and 102% | 101% and 97.3% and 81.5% | 61.2% and 77.3% and 77.1% | – |
| CC1COCCN1c1cc(-c2ccnn2C)c2ccnc(-c3ccn[nH]3)c2n1 (centres undefined) | 123 nM and 209 nM and 118 nM | 101% and 104% and 88.6% | 56.4% and 92% and 57.7% | 16.5% and 26.5% and 11.5% | 4.64% and 9.13% and 3.92% | – | – | viability, T/C (compound 0.00316 µM): 104% and 102% and 103%; viability, T/C (compound 0.01 µM): 103% and 104% and 94.9% |
| CC1COCCN1c1cc(C2(S(C)(=N)=O)CC2)nc(-c2ccnc3[nH]ccc23)n1 (centres undefined) | 4620 nM and 6580 nM and 2990 nM | 110% and 102% and 98.7% | 110% and 102% and 98.6% | 96.8% and 101% and 93.2% | 96.6% and 96.8% and 94% | 64.5% and 88.2% and 47.7% | 17.9% and 27.9% and 15.4% | – |
| CCN(c1cc(-c2ccc(CN3CCOCC3)cc2)cc(C(=O)NCc2c(C)cc(C)[nH]c2=O)c1C)C1CCOCC1 | > 3000 nM | – | – | – | – | – | – | viability, T/C (compound 0.00949 µM): 100% (2×) and 106%; viability, T/C (compound 0.03 µM): 98.8% and 111% and 109%; viability, T/C (compound 0.0949 µM): 105% and 96.5% and 96.9%; viability, T/C (compound 0.3 µM): 110% and 109% and 112%; viability, T/C (compound 0.949 µM): 110% and 109% and 102%; viability, T/C (compound 3 µM): 117% and 104% and 107% |
| CC[C@@]1(O)C(=O)OCc2c1cc1n(c2=O)Cc2cc3c(CN(C)C)c(O)ccc3nc2-1 | 44.7 nM and 53.3 nM and 57 nM | 64.5% and 73.7% and 85.6% | 16.4% and 21.4% and 16.1% | – | – | – | – | viability, T/C (compound 0.000316 µM): 105% and 100% and 103%; viability, T/C (compound 0.001 µM): 97.3% and 102% and 104%; viability, T/C (compound 0.00316 µM): 96.1% and 107% and 98%; viability, T/C (compound 0.01 µM): 97.8% and 106% and 109% |
| CCc1c2c(nc3ccc(O)cc13)-c1cc3c(c(=O)n1C2)COC(=O)[C@]3(O)CC | 4.77 nM and 6.31 nM and 5.45 nM | – | – | – | – | – | – | viability, T/C (compound 0.000949 µM): 86.2% and 105% and 92.8%; viability, T/C (compound 0.003 µM): 71.8% and 98.8% and 87.3%; viability, T/C (compound 0.00949 µM): 17.6% and 23.2% and 15.3%; viability, T/C (compound 0.03 µM): 5.33% and 8.68% and 6.03%; viability, T/C (compound 0.0949 µM): 2.54% and 5.4% and 3.46%; viability, T/C (compound 0.3 µM): 2.09% and 4.14% and 2.23% |
| COc1cc(C2c3cc4c(cc3C(OC3OC5COC(C)OC5C(O)C3O)C3COC(=O)C23)OCO4)cc(OC)c1O (centres undefined) | 951 nM and 572 nM and 989 nM | 101% and 104% and 103% | 100% and 95.1% and 109% | 75% and 74.2% and 81.8% | 46.5% and 25.8% and 49% | 26.6% and 22.7% and 27% | 5.89% and 5.81% and 13.3% | – |
| COc1cc(Nc2ncc3c(n2)-c2ccc(Cl)cc2C(c2c(F)cccc2OC)=NC3)ccc1C(=O)O | 3170 nM and 5260 nM and 2870 nM | 94.7% and 108% and 91.5% | 96% and 110% and 93.9% | 98% and 122% and 107% | 78.9% and 92.7% and 79.7% | 50.9% and 63.2% and 48.5% | 27.6% and 35% and 28.7% | – |
| COc1ccc([C@@H](O)c2cc(-c3ncnc4cc(N5CCOCC5)ccc34)c(F)cc2Cl)nn1 | > 10000 nM | 96.7% and 103% and 114% | 93.2% and 100% and 104% | 98.7% and 110% and 115% | 84.7% and 105% and 108% | 91.4% and 103% and 111% | 70.2% and 91.1% and 85.7% | – |
